Assay results reported in patent US20250332392A1, “APPARATUSES AND METHODS FOR TREATMENT OF FEMALE URINARY INCONTINENCE” (THE BOARD OF REGENTS OF THE UNIVERSITY OF TEXAS SYSTEM, priority 2022, published 2025).

How the values were obtained:
[1] = clinical trial pharmacokinetics: plasma and cervicovaginal (CVF) secretion drug concentrations after oral sildenafil; format: in vivo; details: women, oral 20 mg 3 times a day for a month
Procedure: A series of pharmacokinetic and safety studies were conducted in both women and sheep.

[2] = test system: urinary incontinence (UI) episodes; test: clinical trial of oral sildenafil in women: UI episodes and side effects; format: in vivo
Excerpt: In view of this, the inventors determined to develop a way to administer sildenafil directly to the muscles and structures of the pelvic floor using an intravaginal apparatus. Disclosed in the discussion that follows are example embodiments of intravaginal apparatuses that can be used for treating urinary incontinence.

Structure (SMILES): CCCc1nn(C)c2c(=O)[nH]c(-c3cc(S(=O)(=O)N4CCN(C)CC4)ccc3OCC)nc12 [sildenafil]
- dependence of CVF secretion drug concentrations on plasma drug concentrations [1]: not dependent on the plasma drug concentrations
- CVF secretion drug concentrations compared with plasma drug concentrations ([1]; later timepoints after the last oral dose): higher than the plasma drug concentrations
- side effects ([2]; women taking oral sildenafil): flushing, visual changes, and gastrointestinal changes
- number of UI episodes per day ([2]; women taking oral sildenafil (20 mg 3 times a day for a month)): decrease
